Reference: patent US8569281B2, “Compounds and their administration for treating a neurodegenerative disease as well as a method for identifying a compound capable of inhibiting a kinase, such as LRRK” (Medical Research Council Technology, priority 2010, dated 2013)

The compounds below were run against LRRK2 (Homo sapiens (Human), UniProt Q5S007) (assay: In Vitro LRRK2 Assay (LabChip 3000, fluorescently-labeled peptide substrate)). Conditions: ATP 130 μM, substrate 1 μM, 2 hours, ambient temperature; LRRK2 variant not given; read-out: Ki (μM), affinity values for LRRK2.
Chain of LRRK2 (Q5S007 whole entry G2019S): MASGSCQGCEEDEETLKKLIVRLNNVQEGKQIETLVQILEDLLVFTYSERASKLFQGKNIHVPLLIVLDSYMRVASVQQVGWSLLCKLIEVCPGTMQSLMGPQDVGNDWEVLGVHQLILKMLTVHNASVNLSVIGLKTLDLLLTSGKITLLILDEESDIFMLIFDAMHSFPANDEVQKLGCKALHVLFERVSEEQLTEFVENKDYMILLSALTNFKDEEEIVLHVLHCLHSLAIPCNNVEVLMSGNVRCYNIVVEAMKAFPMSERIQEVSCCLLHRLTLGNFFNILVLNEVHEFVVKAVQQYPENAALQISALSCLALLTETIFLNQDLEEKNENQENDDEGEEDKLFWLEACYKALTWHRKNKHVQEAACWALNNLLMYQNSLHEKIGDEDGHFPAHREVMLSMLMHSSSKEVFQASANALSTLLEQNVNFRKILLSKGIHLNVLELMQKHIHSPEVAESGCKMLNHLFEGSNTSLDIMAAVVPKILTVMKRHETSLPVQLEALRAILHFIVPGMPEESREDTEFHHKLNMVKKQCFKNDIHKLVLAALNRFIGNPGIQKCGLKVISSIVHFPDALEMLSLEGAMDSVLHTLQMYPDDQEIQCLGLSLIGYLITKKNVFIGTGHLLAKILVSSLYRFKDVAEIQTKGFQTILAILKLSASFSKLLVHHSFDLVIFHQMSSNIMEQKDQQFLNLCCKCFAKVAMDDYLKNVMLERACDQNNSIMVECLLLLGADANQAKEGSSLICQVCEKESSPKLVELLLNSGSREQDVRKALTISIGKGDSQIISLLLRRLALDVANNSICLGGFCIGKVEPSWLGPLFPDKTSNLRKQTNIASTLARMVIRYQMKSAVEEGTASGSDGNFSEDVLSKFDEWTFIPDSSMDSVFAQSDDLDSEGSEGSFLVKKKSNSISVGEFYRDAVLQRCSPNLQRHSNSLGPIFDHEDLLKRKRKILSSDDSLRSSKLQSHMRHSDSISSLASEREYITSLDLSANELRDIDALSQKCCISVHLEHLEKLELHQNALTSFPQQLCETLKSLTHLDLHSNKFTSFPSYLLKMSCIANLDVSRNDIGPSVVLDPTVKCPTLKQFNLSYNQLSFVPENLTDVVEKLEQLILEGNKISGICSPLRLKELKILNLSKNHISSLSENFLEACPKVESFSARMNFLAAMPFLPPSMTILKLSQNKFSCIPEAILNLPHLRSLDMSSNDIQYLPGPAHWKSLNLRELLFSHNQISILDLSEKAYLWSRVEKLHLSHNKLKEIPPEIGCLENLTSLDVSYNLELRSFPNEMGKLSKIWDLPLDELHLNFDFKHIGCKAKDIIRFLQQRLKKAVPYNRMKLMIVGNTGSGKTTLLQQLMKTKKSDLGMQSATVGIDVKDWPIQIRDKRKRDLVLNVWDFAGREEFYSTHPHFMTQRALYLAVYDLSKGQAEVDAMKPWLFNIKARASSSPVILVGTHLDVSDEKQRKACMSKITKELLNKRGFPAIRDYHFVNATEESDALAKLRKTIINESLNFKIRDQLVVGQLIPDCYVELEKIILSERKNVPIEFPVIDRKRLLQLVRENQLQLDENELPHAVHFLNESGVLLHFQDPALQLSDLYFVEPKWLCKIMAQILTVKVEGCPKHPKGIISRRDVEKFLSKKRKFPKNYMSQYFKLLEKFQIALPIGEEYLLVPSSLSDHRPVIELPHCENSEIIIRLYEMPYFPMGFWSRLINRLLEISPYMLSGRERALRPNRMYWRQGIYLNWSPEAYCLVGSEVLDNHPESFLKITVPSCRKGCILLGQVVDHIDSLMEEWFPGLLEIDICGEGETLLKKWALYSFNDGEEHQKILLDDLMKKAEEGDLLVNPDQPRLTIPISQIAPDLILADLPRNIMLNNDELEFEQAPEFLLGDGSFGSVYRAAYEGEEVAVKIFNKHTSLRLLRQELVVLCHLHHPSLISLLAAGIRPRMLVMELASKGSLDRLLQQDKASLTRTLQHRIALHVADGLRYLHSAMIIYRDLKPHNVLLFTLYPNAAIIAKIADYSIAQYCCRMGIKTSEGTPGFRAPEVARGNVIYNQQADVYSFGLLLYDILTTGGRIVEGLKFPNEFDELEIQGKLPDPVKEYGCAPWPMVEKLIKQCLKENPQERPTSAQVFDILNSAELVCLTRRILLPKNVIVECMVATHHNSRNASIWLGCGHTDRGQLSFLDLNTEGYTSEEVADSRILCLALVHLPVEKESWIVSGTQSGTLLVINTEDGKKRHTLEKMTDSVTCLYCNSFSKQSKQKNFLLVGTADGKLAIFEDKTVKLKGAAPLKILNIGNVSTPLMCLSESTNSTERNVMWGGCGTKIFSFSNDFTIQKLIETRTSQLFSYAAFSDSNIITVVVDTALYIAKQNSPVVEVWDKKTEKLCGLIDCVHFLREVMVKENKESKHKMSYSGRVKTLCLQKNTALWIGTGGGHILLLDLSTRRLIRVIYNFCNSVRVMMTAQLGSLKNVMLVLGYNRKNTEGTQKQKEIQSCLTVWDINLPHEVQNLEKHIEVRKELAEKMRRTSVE
Format: biochemical

Going from `O=C1OCCN1CCOc1nccc2[nH]nc(-c3ccnc(N4CCOCC4)c3)c12` [Example 179, 3-(2-(3-(2-morpholinopyridin-4-yl)-1H-pyrazolo[4,3-c]pyridin-4-yloxy)ethyl)oxazolidin-2-one] to `c1cc(-c2n[nH]c3ccnc(OC4CCOC4)c23)cc(N2CCOCC2)n1` (centres unmarked) [Example 190, 4-(4-(4-(tetrahydrofuran-3-yloxy)-1H-pyrazolo[4,3-c]pyridin-3-yl)pyridin-2-yl)morpholine], the Ki falls from 0.354 µM to 0.013 µM (27-fold).

Going from `CC(C)n1cc(-c2n[nH]c3ccnc(OCCN4CCOC4=O)c23)cn1` [Example 182, 3-(2-(3-(1-isopropyl-1H-pyrazol-4-yl)-1H-pyrazolo[4,3-c]pyridin-4-yloxy)ethyl)oxazolidin-2-one] to `CC(C)n1cc(-c2n[nH]c3ccnc(OC4CCOC4)c23)cn1` (centres unmarked) [Example 224, 3-(1-Isopropyl-1H-pyrazol-4-yl)-4-(tetrahydro-furan-3-yloxy)-1H-pyrazolo[4,3-c]pyridine], the Ki falls from 0.323 µM to 0.007 µM (46-fold). The second binds more tightly here.

`COc1nccc2[nH]nc(-c3cnn(C4CCOCC4)c3)c12` [Example 184, 4-methoxy-3-(1-(tetrahydro-2H-pyran-4-yl)-1H-pyrazol-4-yl)-1H-pyrazolo[4,3-c]pyridine] and `COc1nccc2[nH]nc(-c3cnn(C4CCOC4)c3)c12` (centres unmarked) [Example 234, 4-methoxy-3-(1-(tetrahydrofuran-3-yl)-1H-pyrazol-4-yl)-1H-pyrazolo[4,3-c]pyridine] are within 1.5-fold of each other in Ki: 0.033 µM for the first, 0.023 µM for the second.

`COC(=O)c1[nH]nc2ccnc(NC3CCOCC3)c12` [Example 185, methyl 4-(tetrahydro-2H-pyran-4-ylamino)-1H-pyrazolo[4,3-c]pyridine-3-carboxylate] and `Cc1n[nH]c2ccnc(NC3CCOCC3)c12` [Example 188, 3-methyl-N-(tetrahydro-2H-pyran-4-yl)-1H-pyrazolo[4,3-c]pyridin-4-amine] are within 1.5-fold of each other in Ki: 0.1 µM for the first, 0.13 µM for the second.

`c1cc2[nH]nc(-c3cnn(C4CCOCC4)c3)c2c(OC2CCOCC2)n1` [Example 186, 3-(1-(tetrahydro-2H-pyran-4-yl)-1H-pyrazol-4-yl)-4-(tetrahydro-2H-pyran-4-yloxy)-1H-pyrazolo[4,3-c]pyridine] and `CCn1cc(-c2cc(-c3n[nH]c4ccnc(OC5CCOCC5)c34)ccn2)cn1` [Example 213, 3-(2-(1-ethyl-1H-pyrazol-4-yl)pyridin-4-yl)-4-(tetrahydro-2H-pyran-4-yloxy)-1H-pyrazolo[4,3-c]pyridine] are within 1.5-fold of each other in Ki: 0.013 µM for the first, 0.012 µM for the second.

First: Cc1n[nH]c2ccnc(OC3CCCC3)c12 [Example 196, 4-(cyclopentyloxy)-3-methyl-1H-pyrazolo[4,3-c]pyridine]
Second: CC(C)n1cc(-c2n[nH]c3ccnc(OC4CCOCC4)c23)cc1C(=O)N1CCC1 [Example 218, Azetidin-1-yl-{1-isopropyl-4-[4-(tetrahydro-pyran-4-yloxy)-1H-pyrazolo[4,3-c]pyridin-3-yl]-1H-pyrrol-2-yl}-methanone]
The Ki of the first is 110-fold higher: 0.858 µM for the first, 0.008 µM for the second.

`c1cncc(-c2cc(-c3n[nH]c4ccnc(OC5CCOCC5)c34)ccn2)c1` [Example 197, 3-(2,3′-bipyridin-4-yl)-4-(tetrahydro-2H-pyran-4-yloxy)-1H-pyrazolo[4,3-c]pyridine] and `c1cc(-c2cc(-c3n[nH]c4ccnc(OC5CCOCC5)c34)ccn2)ccn1` [Example 198, 3-(2,4′-bipyridin-4-yl)-4-(tetrahydro-2H-pyran-4-yloxy)-1H-pyrazolo[4,3-c]pyridine] are within 1.5-fold of each other in Ki: 0.021 µM for the first, 0.026 µM for the second.

Going from `c1ncc(-c2cc(-c3n[nH]c4ccnc(OC5CCOCC5)c34)ccn2)cn1` [Example 199, 3-(2-(pyrimidin-5-yl)pyridin-4-yl)-4-(tetrahydro-2H-pyran-4-yloxy)-1H-pyrazolo[4,3-c]pyridine] to `c1cc(-c2n[nH]c3ccnc(OC4CCOCC4)c23)cc(-c2cn[nH]c2)n1` [Example 204, 3-(2-(1H-pyrazol-4-yl)pyridin-4-yl)-4-(tetrahydro-2H-pyran-4-yloxy)-1H-pyrazolo[4,3-c]pyridine], the Ki falls from 0.046 µM to 0.012 µM (3.8-fold).

First: N#Cc1cccc(-c2cc(-c3n[nH]c4ccnc(OC5CCOCC5)c34)ccn2)c1 [Example 201, 3-(4-(4-(tetrahydro-2H-pyran-4-yloxy)-1H-pyrazolo[4,3-c]pyridin-3-yl)pyridin-2-yl) benzonitrile]
Second: N#Cc1ccc(-c2cc(-c3n[nH]c4ccnc(OC5CCOCC5)c34)ccn2)cc1 [Example 202, 4-(4-(4-(tetrahydro-2H-pyran-4-yloxy)-1H-pyrazolo[4,3-c]pyridin-3-yl)pyridin-2-yl) benzonitrile]
The Ki of the first is 2.8-fold lower: 0.009 µM for the first, 0.025 µM for the second. The first binds more tightly here.

Compared with `CN(C)C(=O)c1cccc(-c2cc(-c3n[nH]c4ccnc(OC5CCOCC5)c34)ccn2)c1` [Example 203, N,N-dimethyl-3-(4-(4-(tetrahydro-2H-pyran-4-yloxy)-1H-pyrazolo[4,3-c]pyridin-3-yl)pyridin-2-yl)benzamide], `CN(C)C(=O)c1ccc(-c2cc(-c3n[nH]c4ccnc(OC5CCOCC5)c34)ccn2)cc1` [Example 212, N,N-dimethyl-4-(4-(4-(tetrahydro-2H-pyran-4-yloxy)-1H-pyrazolo[4,3-c]pyridin-3-yl)pyridin-2-yl)benzamide] is 2-fold lower in Ki: 0.018 µM for the first, 0.009 µM for the second. The second binds more tightly here.

Going from `CC(=O)Nc1ccccc1-c1cc(-c2n[nH]c3ccnc(OC4CCOCC4)c23)ccn1` [Example 206, N-(2-(4-(4-(tetrahydro-2H-pyran-4-yloxy)-1H-pyrazolo[4,3-c]pyridin-3-yl)pyridin-2-yl)phenyl)acetamide] to `CC(=O)Nc1cccc(-c2cc(-c3n[nH]c4ccnc(OC5CCOCC5)c34)ccn2)c1` [Example 209, N-(3-(4-(4-(tetrahydro-2H-pyran-4-yloxy)-1H-pyrazolo[4,3-c]pyridin-3-yl)pyridin-2-yl)phenyl)acetamide], the Ki falls from 0.066 µM to 0.01 µM (6.6-fold). The second binds more tightly here.

First: CC(=O)Nc1ccc(-c2cc(-c3n[nH]c4ccnc(OC5CCOCC5)c34)ccn2)cn1 [Example 207, N-(4-(4-(tetrahydro-2H-pyran-4-yloxy)-1H-pyrazolo[4,3-c]pyridin-3-yl)-2,3′-bipyridin-6′-yl)acetamide]
Second: CC(=O)Nc1ccc(-c2cc(-c3n[nH]c4ccnc(OC5CCOCC5)c34)ccn2)cc1 [Example 210, N-(4-(4-(4-(tetrahydro-2H-pyran-4-yloxy)-1H-pyrazolo[4,3-c]pyridin-3-yl)pyridin-2-yl)phenyl)acetamide]
The Ki of the first is 1.9-fold higher: 0.021 µM for the first, 0.011 µM for the second.

First: CNC(=O)c1cccc(-c2cc(-c3n[nH]c4ccnc(OC5CCOCC5)c34)ccn2)c1 [Example 211, N-methyl-3-(4-(4-(tetrahydro-2H-pyran-4-yloxy)-1H-pyrazolo[4,3-c]pyridin-3-yl)pyridin-2-yl)benzamide]
Second: CC(C)Oc1nccc2[nH]nc(-c3ccnc(C(=O)N4C[C@@H]5C[C@H]4CO5)c3)c12 [Example 220, [4-(4-Isopropoxy-1H-pyrazolo[4,3-c]pyridin-3-yl)-pyridin-2-yl]-(1S,4S)-2-oxa-5-aza-bicyclo[2.2.1]hept-5-yl-methanone]
The Ki of the first is 26-fold lower: 0.015 µM for the first, 0.384 µM for the second.

First: CC(C)Oc1nccc2[nH]nc(-c3cc(C(=O)N4CCCC4)n(C(C)C)c3)c12 [Example 216, [4-(4-Isopropoxy-1H-pyrazolo[4,3-c]pyridin-3-yl)-1-isopropyl-1H-pyrrol-2-yl]-pyrrolidin-1-yl-methanone]
Second: COc1nccc2[nH]nc(-c3ccnc(N4C[C@@H](C)O[C@@H](C)C4)c3)c12 [Example 238, (2S,6R)-4-(4-(4-methoxy-1H-pyrazolo[4,3-c]pyridin-3-yl)pyridin-2-yl)-2,6-dimethylmorpholine]
The Ki of the first is 4.2-fold lower: 0.006 µM for the first, 0.025 µM for the second. The first binds more tightly here.

Work on `CNC(=O)c1cccc(-c2[nH]nc3cc(C)nc(OC)c23)c1` [Example 235, 3-(4-methoxy-6-methyl-1H-pyrazolo[4,3-c]pyridin-3-yl)-N-methylbenzamide] yielded a Ki of 0.199 µM.
